Earlier results as cited in US20220339088A1, “METHOD FOR DYEING KERATIN MATERIAL, COMPRISING THE USE OF AN ORGANIC C1-C6 ALKOXY SILANE AND AN ACIDIFIER” (Henkel AG & Co. KGaA, priority 2019, published 2022).

Settings: 25° C.

solubility in water (in words) | SMILES | solubility in water
 | O=S(=O)([O-])c1ccc(N=Nc2c(O)ccc3ccccc23)cc1.[Na+] [Acid Orange 7, sodium salt of 4-[(2-hydroxy-1-naphthyl)azo]benzene sulphonate] | more than 7 g/L
 | Nc1cc(S(=O)(=O)[O-])cc2cc(S(=O)(=O)[O-])c(N=Nc3ccccc3)c(O)c12.[Na+].[Na+] [Acid Red 33, diantrium salt of 5-amino-4-hydroxy-3-(phenylazo)-naphthalene-2,7-disulphonate] | 2500 µg/mL
 | O=C([O-])c1c(Cl)c(Cl)c(Cl)c(Cl)c1-c1c2c(Br)cc(=O)c(Br)c-2oc2c(Br)c(O)cc(Br)c12.O=C([O-])c1c(Cl)c(Cl)c(Cl)c(Cl)c1-c1c2c(Br)cc(=O)c(Br)c-2oc2c(Br)c(O)cc(Br)c12.[Na+].[Na+] [Acid Red 92, disodium salt of 3,4,5,6-tetrachloro-2-(1,4,5,8-tetrabromo-6-hydroxy-3-oxoxanthen-9-yl)benzoic acid] | greater than 10 g/L
highly soluble | O=C([O-])C1=NN(c2ccc(S(=O)(=O)[O-])cc2)C(=O)C1N=Nc1ccc(S(=O)(=O)[O-])cc1.[Na+].[Na+].[Na+] (stereo not shown) [Acid Yellow 23, trisodium salt of 4,5-dihydro-5-oxo-1-(4-sulfophenyl)-4-((4-sulfophenyl)azo)-1H-pyrazole-3-carboxylic acid] | 
